For data set [1], the target named is human muscarinic acetylcholine M3 receptor (M3-ACh) (Homo sapiens, UniProt P20309). The data set can be described thus: biochemical. It is filed as binding.
Data set [2] is described as follows: Measurement of plasma protein binding by equilibrium dialysis. Conditions: 37° C., 5 μM compound. A general note: Equilibrium dialysis compares concentrations on both sides of a semipermeable membrane.
The mark [3] stands for this setting: pIC50 of comparative compounds containing a cyclohexyl (C6) ring in place of cycloheptyl (C7).
Where [4] appears, read: pIC50 of comparative compounds containing a cyclooctyl (C8) ring in place of cycloheptyl (C7).

Each structure is given as a SMILES string.

A word on the IC50: it is the concentration at which inhibition is half-maximal.

human muscarinic acetylcholine M3 receptor (M3-ACh), sequence (P20309 whole entry): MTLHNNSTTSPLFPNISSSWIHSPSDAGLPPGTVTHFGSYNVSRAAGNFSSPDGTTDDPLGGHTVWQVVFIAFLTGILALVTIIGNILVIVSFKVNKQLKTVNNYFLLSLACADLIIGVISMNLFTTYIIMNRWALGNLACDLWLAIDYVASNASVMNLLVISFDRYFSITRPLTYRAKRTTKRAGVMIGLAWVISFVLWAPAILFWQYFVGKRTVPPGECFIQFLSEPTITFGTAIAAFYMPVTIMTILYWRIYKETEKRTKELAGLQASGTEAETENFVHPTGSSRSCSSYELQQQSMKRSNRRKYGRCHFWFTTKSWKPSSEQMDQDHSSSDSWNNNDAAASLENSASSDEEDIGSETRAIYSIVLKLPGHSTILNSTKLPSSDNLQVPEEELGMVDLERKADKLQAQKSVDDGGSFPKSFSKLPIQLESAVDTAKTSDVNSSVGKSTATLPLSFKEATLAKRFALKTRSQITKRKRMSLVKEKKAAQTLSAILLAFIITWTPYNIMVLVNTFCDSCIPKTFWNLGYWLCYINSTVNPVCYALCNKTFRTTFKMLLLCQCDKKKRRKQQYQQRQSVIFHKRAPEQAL

Molecule `O=C(C[N+]12CCC(CC1)[C@@H](OC(=O)C1(c3ccccc3)CCCCCC1)C2)Nc1cnccn1.[Br-]` [Example 16, (3R)-1-[2-Oxo-2-(pyrazin-2-ylamino)ethyl]-3-{[(1-phenylcycloheptyl)carbonyl]oxy}-1-azoniabicyclo[2.2.2]octane Bromide] yielded an IC50 in data set [1] (M3 binding IC50) below 2 nM. Besides, the “human plasma protein binding” value in data set [2] was 94 % bound.

Take `O=C(O[C@H]1C[N+]2(CC3(c4ccc(Cl)cc4)CC3)CCC1CC2)C1(c2ccccc2)CCCCCC1` [Example 32, (3R^5)-1-{[1-(4-Chlorophenyl)cyclopropyl]methyl}-3-{[(1-phenylcycloheptyl)carbonyl]oxy}-1-azoniabicyclo[2.2.2]octane Bromide]: the IC50 in data set [1] (M3 binding IC50) lay in the range of 2 to 10 nM.

Consider `Cc1cnc(NC(=O)C[N+]23CCC(CC2)[C@@H](OC(=O)C2(c4ccccc4)CCCCCC2)C3)cn1` [Example 33, (3R)-1-{2-[(5-Methylpyrazin-2-yl)amino]-2-oxoethyl}-3-{[(1-phenylcycloheptyl)carbonyl]oxy}-1-azoniabicyclo[2.2.2]octane Bromide], for which, in data set [1] (M3 binding IC50), the IC50 is below 2 nM.

On to `O=C(O)C[N+]12CCC(CC1)[C@@H](OC(=O)C1(c3ccccc3)CCCCCC1)C2` [Example 34, (3R)-1-(Carboxymethyl)-3-{[(1-phenylcycloheptyl)carbonyl]oxy}-1-azoniabicyclo[2.2.2]octane Bromide], for which the IC50 in data set [1] (M3 binding IC50) was above 10 nM.

Consider `O=C(O[C@H]1C[N+]2(CCc3cccc(Cl)c3)CCC1CC2)C1(c2ccccc2)CCCCCC1` [Example 35, (3R)-1-[2-(3-Chlorophenyl)ethyl]-3-{[(1-phenylcycloheptyl)carbonyl]oxy}-1-azoniabicyclo[2.2.2]octane bromide], for which the IC50 in data set [1] (M3 binding IC50) is below 2 nM.

`NC(=O)C[N+]12CCC(CC1)[C@@H](OC(=O)C1(c3ccccc3)CCCCCC1)C2` [Example 36, (3R)-1-(2-Amino-2-oxoethyl)-3-{[(1-phenylcycloheptyl)carbonyl]oxy}-1-azoniabicyclo[2.2.2]octane Bromide] returned an IC50 in data set [1] (M3 binding IC50) below 2 nM.

On to `O=C(C[N+]12CCC(CC1)[C@@H](OC(=O)C1(c3ccccc3)CCCCCC1)C2)NCCCc1ccccc1` [Example 37, (3R)-1-{2-Oxo-2-[(3-phenylpropyl)amino]ethyl}-3-{[(1-phenylcycloheptyl)carbonyl]oxy}-1-azoniabicyclo[2.2.2]octane Bromide], for which the half-maximal inhibitory concentration (IC50) in data set [1] (M3 binding IC50) was 2 to 10 nM.

In data set [1] (M3 binding IC50), `COc1ccc(CC[N+]23CCC(CC2)[C@@H](OC(=O)C2(c4ccccc4)CCCCCC2)C3)cc1Cl` [Example 38, (3R)-1-[2-(3-Chloro-4-methoxyphenyl)ethyl]-3-{[(1-phenylcycloheptyl)carbonyl]oxy}-1-azoniabicyclo[2.2.2]octane Bromide] had an IC50 below 2 nM.

The molecule `Cc1cc(NC(=O)C[N+]23CCC(CC2)[C@@H](OC(=O)C2(c4ccccc4)CCCCCC2)C3)on1` [Example 39, (3R)-1-{2-[(3-Methylisoxazol-5-yl)amino]-2-oxoethyl}-3-{[(1-phenylcycloheptyl)carbonyl]oxy}-1-azoniabicyclo[2.2.2]octane Bromide] registered an IC50 in data set [1] (M3 binding IC50) below 2 nM.

The molecule `O=C(C[N+]12CCC(CC1)[C@@H](OC(=O)C1(c3ccccc3)CCCC1)C2)Nc1cnccn1` [compound 3, (3R)-1-[2-Oxo-2-(pyrazin-2-ylamino)ethyl]-3-{[(1-phenylcyclopentyl)carbonyl]oxy}-1-azoniabicyclo[2.2.2]octane Bromide, reference compound] had an IC50 in data set [1] (pIC50 of comparative compounds containing a cyclopentyl (C5) ring in place of cycloheptyl (C7)) of 0.316 nM.

Molecule `C[N+]12CCC(CC1)[C@@H](OC(=O)C1(c3ccccc3)CCCCC1)C2` [compound 5, (3R)-1-Methyl-3-{[(1-phenylcyclohexyl)carbonyl]oxy}-1-azoniabicyclo[2.2.2]octane Iodide, reference compound] displayed an IC50 in data set [1] (setting [3]) of 50.1 nM.

`O=C(C[N+]12CCC(CC1)[C@@H](OC(=O)C1(c3ccccc3)CCCCC1)C2)Nc1cnccn1` [compound 6, (3R)-1-[2-Oxo-2-(pyrazin-2-ylamino)ethyl]-3-{[(1-phenylcyclohexyl)carbonyl]oxy}-1-azoniabicyclo[2.2.2]octane Bromide, reference compound] had an IC50 in data set [1] (setting [3]) of 0.2 nM.

The molecule `C[N+]12CCC(CC1)[C@@H](OC(=O)C1(c3ccccc3)CCCCCCC1)C2` [compound 8, (3R)-1-Methyl-3-{[(1-phenylcyclooctyl)carbonyl]oxy}-1-azoniabicyclo[2.2.2]octane Iodide, reference compound] had an IC50 in data set [1] (setting [4]) of 39.8 nM.

As to `O=C(C[N+]12CCC(CC1)[C@@H](OC(=O)C1(c3ccccc3)CCCCCCC1)C2)Nc1cnccn1` [compound 9, (3R)-1-[2-Oxo-2-(pyrazin-2-ylamino)ethyl]-3-{[(1-phenylcyclooctyl)carbonyl]oxy}-1-azoniabicyclo[2.2.2]octane Bromide, reference compound], the IC50 in data set [1] (setting [4]) is 0.316 nM.

The values are drawn from US8207193B2 (priority 2006, dated 2012).
